Test results: patent US11473145B2, “Methods for determining whether a patient suffering from rhabdomyolysis achieves a response with a TLR9 antagonist” (INSERM (INSTITUT NATIONAL DE LA SANTÉ ET DE LA RECHERCHE …, priority 2017, dated 2022)
“Also recorded” adds a separate entry of the source.

Assays:
Format in all cases: in vivo, human
[1] = tested on: patients with lipin-1 disease; test: Six-minute walk test (physical maximum capacities) in patients treated by Plaquenil
Source text: (§1) We treated in 2016 two patients (P1, P2) with lipin-1 disease by hydroxychloroquine sulphate (plaquenil®) and two patients (P3, P4) with dantrolene sodium after obtaining the authorization by the CPP of Paris Descarte University (Comité pour la protection des personnes). Moreover the patient (P5) has been treated for one month by plaquenil® because of their cardiac dysfunction, their fatigability and their sleep disorders. Indeed we think that plaquenil® works well on the two patients treated (P1, P2) and P5's state was considered sufficiently serious to propose it. Plaquenil® was given at a dose of 6 mg/Kg/day into 1 intake (dose usually given in Lupus disease) to P1, P2 and P5.
(§2) Patient 1 corrected their clinical muscle phenotype (Table 1). Physical maximum capacities were measured using six-minute walk (TC6′), Short-Form life quality by using Questionary (SF-36) to assess QOL for parent and for patient, and a self-assessment pain scale (EVA). […] Since then they have resumed treatment.

[2] = tested on: patients with lipin-1 disease; test: Life quality questionnary PESDQL children
Source text: as §1, §2

[3] = tested on: patients with lipin-1 disease; test: Life quality questionnary PESDQL parent
Source text: as §1, §2

[4] = tested on: patients with lipin-1 disease; test: Self-assessment pain scale (EVA)
Source text: as §1, §2

IL-6 = IL-6 secretion in serum measured by ELISA (serum inflammatory profile); details: for IL-6 concentration in serum: lipin-1 deficient patients
Experimental: FIG. 1. Inflammatory profile in serum of lipin-1 deficient patients in vivo. Above: IL-6 secretion in serum was measured by ELISA.
as §1
(§3) Both patients 1 and 2 treated in vivo with Plaquenil® normalized their serum inflammatory profile in one month after the start of treatment (FIG. 1). IL-6 secretion increased in plasma when the two patients stopped their treatment (FIG. 1). The accumulation of mtDNA in plasma of the two patients before treatment decreases under treatment by Plaquenil® (FIG. 2). After Plaquenil® was stopped, the accumulation of mtDNA reappeared, then normalized when treatment was resumed. We observe a correlation between variations of IL-6 and mtDNA accumulation levels, and with the compliance of the treatment.

[5] = tested on: mitochondrial DNA (mtDNA); test: Quantity of mitochondrial DNA (qPCR) in plasma; details: two patients (P1, P2)
Source text: FIG. 2. Quantity of mitochondrial DNA (qPCR) in plasma of two patients.
as §1, §3

Creatine kinase (CK) = test: Serum Creatine kinase (CK) level
Source text: as §1, §3, §2

[6] = tested on: patients with lipin-1 disease; test: Clinical follow-up: rhabdomyolysis episodes, muscle phenotype and muscle pain
Source text: as §1, §3, §2

[7] = the two patients, treatment resumed, winter 2016-2017

CCN(CCO)CCCC(C)Nc1ccnc2cc(Cl)ccc12 (stereo not shown) [Plaquenil®, hydroxychloroquine sulphate]
Six-minute walk test (normal 560-740) ([1]; patient P1, M 2 of treatment, 6 mg/Kg/day, M 0 before treatment 450 m): P1: 540 m
Six-minute walk test (normal 560-740) ([1]; patient P1, M 5 of treatment, M 0 450 m): P1: 520 m
Six-minute walk test (normal 560-740) ([1]; patient P1, M 9, after M 6-M 8 interruption of treatment, M 0 450 m): P1: 539 m
Six-minute walk test (normal 560-740) ([1]; patient P1, M 16, treatment resumed, M 0 450 m): P1: 530
Six-minute walk test (normal 560-740) ([1]; patient P2, M 2 of treatment, 6 mg/Kg/day, M 0 before treatment 510 m): P2: 550 m
Six-minute walk test (normal 560-740) ([1]; patient P2, M 5 of treatment, M 0 510 m): P2: 595 m
Six-minute walk test (normal 560-740) ([1]; patient P2, M 9, after M 6-M 8 interruption of treatment, M 0 510 m): P2: 587 m
Six-minute walk test (normal 560-740) ([1]; patient P2, M 16, treatment resumed, M 0 510 m): P2: 590
Questionnary (0: very well - 92: very bad) PESDQL children ([2]; patient P1, M 2 of treatment, M 0 before treatment 26): P1: 12
Questionnary (0: very well - 92: very bad) PESDQL children ([2]; patient P1, M 5 of treatment, M 0 26): P1: 11
Questionnary (0: very well - 92: very bad) PESDQL children ([2]; patient P1, M 9, after M 6-M 8 interruption of treatment, M 0 26): P1: 38
Questionnary (0: very well - 92: very bad) PESDQL children ([2]; patient P1, M 16, treatment resumed, M 0 26): P1: 8
Questionnary (0: very well - 92: very bad) PESDQL children ([2]; patient P2, M 2 of treatment, M 0 before treatment 45): P2: 32
Questionnary (0: very well - 92: very bad) PESDQL children ([2]; patient P2, M 5 of treatment, M 0 45): P2: 35
Questionnary (0: very well - 92: very bad) PESDQL children ([2]; patient P2, M 9, after M 6-M 8 interruption of treatment, M 0 45): P2: 47
Questionnary (0: very well - 92: very bad) PESDQL children ([2]; patient P2, M 16, treatment resumed, M 0 45): P2: 30
Questionnary PESDQL parent (0: very well - 92: very bad) ([3]; patient P1, M 2 of treatment, M 0 before treatment 30): P1: 22
Questionnary PESDQL parent (0: very well - 92: very bad) ([3]; patient P1, M 5 of treatment, M 0 30): P1: 12
Questionnary PESDQL parent (0: very well - 92: very bad) ([3]; patient P1, M 9, after M 6-M 8 interruption of treatment, M 0 30): P1: 31
Questionnary PESDQL parent (0: very well - 92: very bad) ([3]; patient P1, M 16, treatment resumed, M 0 30): P1: 20
Questionnary PESDQL parent (0: very well - 92: very bad) ([3]; patient P2, M 2 of treatment, M 0 before treatment 40): P2: 42
Questionnary PESDQL parent (0: very well - 92: very bad) ([3]; patient P2, M 5 of treatment, M 0 40): P2: 33
Questionnary PESDQL parent (0: very well - 92: very bad) ([3]; patient P2, M 9, after M 6-M 8 interruption of treatment, M 0 40): P2: 50
Questionnary PESDQL parent (0: very well - 92: very bad) ([3]; patient P2, M 16, treatment resumed, M 0 40): P2: 35
Pain Evaluation (EVA) (4: not painful - 40: very painful) ([4]; patient P1, M 2 of treatment, M 0 before treatment 24): P1: 16
Pain Evaluation (EVA) (4: not painful - 40: very painful) ([4]; patient P1, M 5 of treatment, M 0 24): P1: 0
Pain Evaluation (EVA) (4: not painful - 40: very painful) ([4]; patient P1, M 9, after M 6-M 8 interruption of treatment, M 0 24): P1: 4
Pain Evaluation (EVA) (4: not painful - 40: very painful) ([4]; patient P1, M 16, treatment resumed, M 0 24): P1: 0
Pain Evaluation (EVA) (4: not painful - 40: very painful) ([4]; patient P2, M 2 of treatment, M 0 before treatment 18): P2: 12
Pain Evaluation (EVA) (4: not painful - 40: very painful) ([4]; patient P2, M 5 of treatment, M 0 18): P2: 0
Pain Evaluation (EVA) (4: not painful - 40: very painful) ([4]; patient P2, M 9, after M 6-M 8 interruption of treatment, M 0 18): P2: 16
Pain Evaluation (EVA) (4: not painful - 40: very painful) ([4]; patient P2, M 16, treatment resumed, M 0 18): P2: 0
IL-6 concentration in serum (IL-6; under treatment): decreases
IL-6 concentration in serum (IL-6; when the treatment is resumed): decreases again
serum inflammatory profile (IL-6; patients 1 and 2, one month after the start of treatment, 6 mg/Kg/day): normalized
IL-6 secretion (serum/plasma) (IL-6; the two patients, after interruption of treatment): increased
accumulation of mtDNA in plasma ([5]; after treatment was stopped): reappeared; also recorded: increases
accumulation of mtDNA in plasma ([5]; under treatment versus before treatment): decreases
accumulation of mtDNA in plasma ([5]; when treatment was resumed): normalized; also recorded: decreases again
CK (Creatine kinase (CK); patient 1, rhabdomyolysis after treatment was stopped): 160 000 U/L
CK (Creatine kinase (CK); patient 2, rhabdomyolysis after treatment was stopped): 300 000 U/L
level of serum Creatine kinase (CK) (Creatine kinase (CK); patients 1 and 2, under treatment): decreased
clinical muscle phenotype ([6]; Patient 1, under treatment): corrected
pain ([6]; patient 2, under treatment): disappeared
walking ability ([6]; patient 2, under treatment): did not improve markedly
new episode of rhabdomyolysis ([6]; patients 1 and 2, during 6 months of treatment): did not have any new episode of rhabdomyolysis
muscle pain [6, 7]: did not have muscle pain
rhabdomyolysis [6, 7]: did not do rhabdomyolysis
rhabdomyolysis after stopping treatment ([6]; the two patients, treatment stopped after 6 months (lack of compliance), hospitalized in intensive care): immediately underwent extensive rhabdomyolysis
